In patent publication US11020414B2, “Antimicrobial compositions with cysteamine” (priority 2010, dated 2021):
Converted amounts (≈) assume the structure as drawn. “And” between values parts separate entries of the source, which are not always exact repeats. Identical values can stand only once.

What was measured:
Assay type in all cases: cell-based
[1] = tested on: Pseudomonas aeruginosa Pa01; assay: MIC determination, strain Pa01; details: for MIC: read-out: MIC100
Method: (§1) The bacterial inoculum was established by the dilution method from actively-growing cultures in Mueller-Hinton (MH) broth, standardized with 0.5 McFarland turbidity standard as described in the CLSI method M26-A.
(§2) Both the bacterial inoculum and the antimicrobial agents, including the compounds structurally related to cysteamine, were added simultaneously to the plates. The plates were incubated at 37° C. for 24 h and the optical density was read at 625 nm on a microtitre plate reader (BioTek Powerwave XS, Winooski, USA). […]
(§3) A number of compounds related in chemical structure to cysteamine were examined for antimicrobial activity; cystamine (dihydrochloride salt), taurine and 2,3-dimercaptosuccinic acid. Other compounds chemically related to cysteamine are known, but are toxic, and are therefore of no utility in a drug of this nature.

[2] = tested on: Pseudomonas aeruginosa Pa14; assay: MIC determination, strain Pa14; details: for MIC: read-out: MIC100
Method: as §1, §2, §3

[3] = tested on: Pseudomonas aeruginosa Pa058; assay: MIC determination, strain Pa058; details: for MIC: read-out: MIC100
Method: as §1, §2, §3

[4] = tested on: Pseudomonas aeruginosa NH57388A; assay: MIC determination, strain NH57388A; details: for MIC: read-out: MIC100
Method: as §1, §2, §3

[5] = tested on: Pseudomonas aeruginosa Pa01; assay: FIC index of combinations with conventional antibiotics, strain Pa01; details: strain Pa01 (Col^R)
Method: as §1
(§4) Both the bacterial inoculum and the antimicrobial agents, including the compounds structurally related to cysteamine, were added simultaneously to the plates. The plates were incubated at 37° C. for 24 h and the optical density was read at 625 nm on a microtitre plate reader (BioTek Powerwave XS, Winooski, USA). The MIC was obtained as the lowest concentration of antimicrobial showing total inhibition of bacterial growth.
(§5) The FIC corresponds to an interaction coefficient indicating whether the combination of antimicrobial agents is synergistic, additive, antagonist or neutral. The FIC is determined by comparing the activity of an agent in combination (MIC of agent A+agent B) with the activity of the agent alone (MIC of agent A or agent B) as follow (Singh et al., 2000): FIC=MICA[combination]/MICA[alone]+MICB[combination]/MICB[alone]
(§6) Additive combinations of two antimicrobial agents are indicated by a FIC index of 1, whereas a FIC index<1 indicates synergistic combinations. Neutral combinations would give a FIC between 1 and 4, a FIC index higher than 4 indicates antagonist effects between the two antimicrobial agents.
(§7) The FIC was also calculated to assess the interaction of two antimicrobial agents in combination against bacterial samples.

[6] = tested on: Pseudomonas aeruginosa Pa14; assay: FIC index of combinations with conventional antibiotics, strain Pa14; details: strain Pa14 (Col^R)
Method: as §1, §4, §5, §6, §7

[7] = tested on: Pseudomonas aeruginosa Pa058; assay: FIC index of combinations with conventional antibiotics, strain Pa058; details: strain Pa058 (Col^R, Cip^R Tob^R)
Method: as §1, §4, §5, §6, §7

[8] = tested on: Pseudomonas aeruginosa Pa57388A; assay: FIC index of combinations with conventional antibiotics, strain Pa57388A; details: strain Pa57388A (Col^R)
Method: as §1, §4, §5, §6, §7

[9] = tested on: Pseudomonas aeruginosa Pa57388D; assay: FIC index of combinations with conventional antibiotics, strain Pa57388D; details: strain Pa57388D (Col^R, Gent^R)
Method: as §1, §4, §5, §6, §7

[10] = in combination with Ciprofloxacin

| SMILES | MIC50 [1] [µg/mL] | MIC90 [1] [µg/mL] | MIC [1] [µg/mL] | MIC50 [2] [µg/mL] | MIC90 [2] [µg/mL] | MIC [2] [µg/mL] | MIC50 [3] [µg/mL] | MIC90 [3] [µg/mL] | MIC [3] [µg/mL] | MIC50 [4] [µg/mL] | MIC90 [4] [µg/mL] | MIC [4] [µg/mL] | further results |
| --- | --- | --- | --- | --- | --- | --- | --- | --- | --- | --- | --- | --- | --- |
| NCCSSCCN [Cystamine, cystamine] | 250 to 1000 (≈ 1.64 to 6.57 mM) | 1000 to 2000 (≈ 6.57 to 13.1 mM) | 2000 (≈ 13.1 mM) | 125 to 250 (≈ 0.821 to 1.64 mM) | 1000 to 2000 (≈ 6.57 to 13.1 mM) | 2000 (≈ 13.1 mM) | 250 to 500 (≈ 1.64 to 3.28 mM) | 1000 to 2000 (≈ 6.57 to 13.1 mM) | 2000 (≈ 13.1 mM) | 500 to 1000 (≈ 3.28 to 6.57 mM) | 1000 to 2000 (≈ 6.57 to 13.1 mM) | 2000 (≈ 13.1 mM) | – |
| O=C(O)C(S)C(S)C(=O)O (stereo not drawn) [2,3-Dimercaptosuccinic Acid, 2,3-dimercaptosuccinic acid] | 1000 to 2000 (≈ 5.49 to 11 mM) | > 2000 | > 2000 | 1000 to 2000 (≈ 5.49 to 11 mM) | 1000 to 2000 (≈ 5.49 to 11 mM) | > 2000 | 500 to 2000 (≈ 2.74 to 11 mM) | 1000 to 2000 (≈ 5.49 to 11 mM) | 2000 (≈ 11 mM) | 500 to 2000 (≈ 2.74 to 11 mM) | 1000 to 2000 (≈ 5.49 to 11 mM) | 2000 (≈ 11 mM) | – |
| CC(=O)N[C@@H](CS)C(=O)O [N-Acetyl Cysteine (NAC), N-Acetyl cysteine, reference compound] | – | – | – | – | – | – | – | – | – | – | – | – | FICI (Additive) Cip [5, 10]: 0.56 and 0.75; FICI (Additive) Tob ([5]; in combination with Tobramycin): 0.53 and 0.52 and 0.5 and 0.56; FICI (Additive) Cip [6, 10]: 0.56 and 0.75; FICI (Additive) Col ([6]; in combination with Colistin): 0.5 and 0.75; FICI (Additive) Gent ([6]; in combination with Gentamicin): 0.51 and 0.52; FICI (Additive) Tob ([6]; in combination with Tobramycin): 0.63 and 0.5 and 0.75; FICI (Additive) Cip [7, 10]: 0.56 and 0.75; FICI (Additive) Col ([7]; in combination with Colistin): 0.53; FICI (Additive) Gent ([7]; in combination with Gentamicin): 0.53; FICI (Additive) Tob ([7]; in combination with Tobramycin): 0.75 and 0.53 and 0.51; FICI (Additive) Cip [8, 10]: 0.63 and 0.5 and 0.56; FICI (Additive) Col ([8]; in combination with Colistin): 0.56 and 0.75 and 0.52; FICI (Additive) Gent ([8]; in combination with Gentamicin): 0.63; FICI (Additive) Tob ([8]; in combination with Tobramycin): 0.53; FICI (Additive) Cip [9, 10]: 0.53 and 0.75; FICI (Additive) Col ([9]; in combination with Colistin): 0.56 and 0.75 and 0.53 and 0.5 and 0.51; FICI (Additive) Tob ([9]; in combination with Tobramycin): 0.56 and 0.63; FICI (Synergy) Tob ([9]; in combination with Tobramycin): 0.25 and 0.31 |
